Laboratory results published in US9237996B2, “Glucosyltransferase inhibitor containing epigallocatechin gallate polymer as active ingredient” (priority 2008, dated 2016).

Key:
[1] = target: T1, glucosyltransferase B (GTFB) (Streptococcus mutans serotype c, UniProt P08987); experiment: Glucosyltransferase inhibitory activity, turbidity (550 nm) of water-insoluble glucan, rGTFB; assay type: biochemical; conditions: 37° C. overnight
T1 construct: made in house; host or cells: Escherichia coli XL-2 harboring plasmid pSK6
T1 sequence (P08987 35-1476): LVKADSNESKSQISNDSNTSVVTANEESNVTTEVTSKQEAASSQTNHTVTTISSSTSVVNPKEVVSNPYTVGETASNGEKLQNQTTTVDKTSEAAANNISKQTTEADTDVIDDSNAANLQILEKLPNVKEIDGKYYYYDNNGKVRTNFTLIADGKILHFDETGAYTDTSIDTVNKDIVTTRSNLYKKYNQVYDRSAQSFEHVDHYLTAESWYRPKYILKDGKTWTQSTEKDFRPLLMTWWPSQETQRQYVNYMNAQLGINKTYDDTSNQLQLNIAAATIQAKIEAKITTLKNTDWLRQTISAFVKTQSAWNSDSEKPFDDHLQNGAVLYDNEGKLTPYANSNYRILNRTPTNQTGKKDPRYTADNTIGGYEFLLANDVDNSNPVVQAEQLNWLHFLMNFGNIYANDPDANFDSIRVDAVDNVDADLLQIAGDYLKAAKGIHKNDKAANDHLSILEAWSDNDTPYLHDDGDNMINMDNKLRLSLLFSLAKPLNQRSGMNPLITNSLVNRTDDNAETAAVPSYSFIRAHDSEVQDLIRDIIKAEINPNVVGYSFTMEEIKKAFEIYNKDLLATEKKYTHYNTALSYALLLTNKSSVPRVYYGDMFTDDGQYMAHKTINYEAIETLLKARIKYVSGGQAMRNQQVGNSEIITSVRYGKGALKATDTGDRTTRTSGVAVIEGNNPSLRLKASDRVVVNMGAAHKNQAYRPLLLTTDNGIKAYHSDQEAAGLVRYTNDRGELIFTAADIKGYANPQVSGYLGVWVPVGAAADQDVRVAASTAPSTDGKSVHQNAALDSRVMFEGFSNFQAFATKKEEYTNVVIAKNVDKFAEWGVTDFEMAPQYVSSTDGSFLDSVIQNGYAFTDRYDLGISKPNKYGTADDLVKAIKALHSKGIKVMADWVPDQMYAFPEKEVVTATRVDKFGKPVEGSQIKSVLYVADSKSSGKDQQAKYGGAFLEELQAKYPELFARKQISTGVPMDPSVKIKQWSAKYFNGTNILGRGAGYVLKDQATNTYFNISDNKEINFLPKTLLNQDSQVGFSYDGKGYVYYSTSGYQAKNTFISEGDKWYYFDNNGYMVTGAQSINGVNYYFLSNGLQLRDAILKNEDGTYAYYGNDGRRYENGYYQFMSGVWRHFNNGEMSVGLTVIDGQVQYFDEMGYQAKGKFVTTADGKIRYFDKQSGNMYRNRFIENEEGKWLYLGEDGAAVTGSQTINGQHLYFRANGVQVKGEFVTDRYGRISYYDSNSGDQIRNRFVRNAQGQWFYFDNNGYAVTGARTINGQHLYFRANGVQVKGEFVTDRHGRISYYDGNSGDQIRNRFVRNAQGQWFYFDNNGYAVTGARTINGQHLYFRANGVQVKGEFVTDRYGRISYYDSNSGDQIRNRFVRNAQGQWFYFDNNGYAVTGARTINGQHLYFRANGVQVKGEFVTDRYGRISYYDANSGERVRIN
Procedure: (§1) The glucosyltransferase inhibitory activity can be measured by using any one of the evaluation methods described in prior-art literatures set forth in Background Art. For example, glucosyltransferase prepared from Streptococcus mutans etc. is added to an aqueous solution containing sucrose, and incubated at about the same temperature (about 37° C.) as in the oral cavity for less than 24 hours, preferably about 16 to 20 hours to enzymatically produce glucan from sucrose. Since glucan is insoluble in water, the turbidity of the resultant reaction solution (for example, turbidity at a wavelength of 550 nm) is measured. In this manner, the yield of glucan can be evaluated. If the yield of glucan low (in other words, turbidity is low), it is said that glucosyltransferase activity is more inhibited than that of the case where the yield of glucan is large (in other words, turbidity is high).
rGTF was prepared by the method described in the paper of M. matsumoto et al, FEMS Microbiology Letters 228 (2003) 73-80. More specifically, Escherichia coli XL-2 strain harboring a plasmid pSK6 having a gene encoding glucosyltransferase B (GTFB) of Streptococcus mutans was subjected to shaking culture performed in Luria Bertani liquid medium containing ampicillin (100 μg/mL) and tetracycline (7.5 μg/mL) at 37° C. for 16 hours. Bacterial cells were collected by centrifugally separating the medium, suspended in a 10 mM phosphate buffer (pH 6.5) previously cooled and crushed by an ultrasonic generator (UD201 type, manufactured by Tomy Seiko Co., Ltd., Tokyo) under ice cooling. After crushed, precipitates were centrifugally removed at 12,000×g for 30 minutes. The resultant supernatant was used as glucosyltransferase B (rGTFB) and put in use in later experiments.
The rGTFB having a specific activity of 503 mU/mg protein and the rGTFC having a specific activity of 6.3 to 22.3 mU/mg protein were used as a mixture. […] Protein was quantified by using the bicinchonine acid method (BCA method) (BCA protein assay kit, manufactured by PIERCE).
(§2) With 2 mL of 0.1M KPB (pH6.0) containing 1% sucrose-containing 0.1% dextran T10, rGTFB or rGTFC (amount corresponding to 15 mU (average value)) obtained in Example 2, and each of the above samples (final concentration: 0.1 mg/mL) were mixed. […] The turbidity (550 nm) of the resultant reaction solution was measured to obtain the yield of glucan insoluble in water. […]
as §2, with “1% sucrose and” for “1% sucrose-containing”, “Example 2” for “Example 2,”, “concentration: 0.05” for “concentration: 0.1”

[2] = target: T2, glucosyltransferase C (GTFC) (Streptococcus mutans serotype c, UniProt P13470); experiment: Glucosyltransferase inhibitory activity, turbidity (550 nm) of water-insoluble glucan, rGTFC; assay type: biochemical; conditions: 37° C. overnight
T2 construct: made in house; host or cells: Escherichia coli XL-2 harboring a plasmid (printed as pSK6)
T2 sequence (P13470 35-1455): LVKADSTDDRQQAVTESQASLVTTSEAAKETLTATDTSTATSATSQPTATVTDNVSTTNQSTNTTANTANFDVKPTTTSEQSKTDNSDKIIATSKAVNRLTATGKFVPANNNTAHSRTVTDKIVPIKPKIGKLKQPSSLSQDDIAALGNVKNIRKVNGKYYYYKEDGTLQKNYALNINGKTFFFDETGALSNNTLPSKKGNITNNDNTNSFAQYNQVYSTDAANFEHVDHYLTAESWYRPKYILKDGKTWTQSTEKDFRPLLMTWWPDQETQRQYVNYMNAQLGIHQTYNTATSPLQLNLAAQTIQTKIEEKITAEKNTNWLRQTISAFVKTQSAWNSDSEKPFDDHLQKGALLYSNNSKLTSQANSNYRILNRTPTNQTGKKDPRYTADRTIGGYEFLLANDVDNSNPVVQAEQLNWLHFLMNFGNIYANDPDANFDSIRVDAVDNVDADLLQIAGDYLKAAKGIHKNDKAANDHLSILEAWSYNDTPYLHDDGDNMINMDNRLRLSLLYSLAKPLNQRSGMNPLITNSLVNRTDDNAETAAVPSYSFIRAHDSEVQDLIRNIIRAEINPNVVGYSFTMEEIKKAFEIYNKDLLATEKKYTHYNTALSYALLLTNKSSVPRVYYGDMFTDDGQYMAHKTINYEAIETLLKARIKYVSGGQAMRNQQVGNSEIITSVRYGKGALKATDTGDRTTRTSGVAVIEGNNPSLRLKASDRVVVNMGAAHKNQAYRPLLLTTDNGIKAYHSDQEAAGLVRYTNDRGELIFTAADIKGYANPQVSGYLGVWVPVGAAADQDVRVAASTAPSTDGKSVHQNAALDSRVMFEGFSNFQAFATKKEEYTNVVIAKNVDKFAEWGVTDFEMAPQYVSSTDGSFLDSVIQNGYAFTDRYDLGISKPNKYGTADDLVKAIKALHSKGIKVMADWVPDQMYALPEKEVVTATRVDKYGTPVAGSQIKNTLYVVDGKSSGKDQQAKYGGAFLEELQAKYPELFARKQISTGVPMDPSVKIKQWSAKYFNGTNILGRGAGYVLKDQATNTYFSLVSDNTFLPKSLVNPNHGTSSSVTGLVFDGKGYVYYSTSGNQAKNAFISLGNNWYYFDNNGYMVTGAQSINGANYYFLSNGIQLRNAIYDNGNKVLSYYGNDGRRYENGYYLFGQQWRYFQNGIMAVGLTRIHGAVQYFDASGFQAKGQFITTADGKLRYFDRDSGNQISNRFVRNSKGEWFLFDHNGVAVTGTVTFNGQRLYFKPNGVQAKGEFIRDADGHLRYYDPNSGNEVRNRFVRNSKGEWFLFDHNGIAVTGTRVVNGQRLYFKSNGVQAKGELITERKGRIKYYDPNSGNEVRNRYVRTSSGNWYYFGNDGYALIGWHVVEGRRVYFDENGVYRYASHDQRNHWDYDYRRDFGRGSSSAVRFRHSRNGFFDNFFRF
Procedure: as §1
Similarly, recombinant glucosyltransferase C (rGTFC) was prepared by using Escherichia coli XL-2 strain harboring a plasmid pSK6 having a gene encoding glucosyltransferase C (GTFC) of Streptococcus mutans and put in use in later experiments.
The rGTFB having a specific activity of 503 mU/mg protein and the rGTFC having a specific activity of 6.3 to 22.3 mU/mg protein were used as a mixture. The activity 1U represents activity of an enzyme in converting glucose ([…]) derived from sucrose into glucan per minute. Protein was quantified by using the bicinchonine acid method (BCA method) (BCA protein assay kit, manufactured by PIERCE).
(§3) With 2 mL of 0.1M KPB (pH6.0) containing 1% sucrose-containing 0.1% dextran T10, rGTFB or rGTFC (amount corresponding to 15 mU (average value)) obtained in Example 2, and each of the above samples (final concentration: 0.1 mg/mL) were mixed. The mixture was incubated at 37° C. overnight. The turbidity (550 nm) of the resultant reaction solution was measured to obtain the yield of glucan insoluble in water. The lower yield of the glucan insoluble in water (in other words, turbidity is low) means that the activity of glucosyltransferase is more inhibited. Note that the control (cont) shown in the figures represents turbidity in the absence of the aforementioned samples.
as §3, with “1% sucrose and” for “1% sucrose-containing”, “Example 2” for “Example 2,”, “concentration: 0.05” for “concentration: 0.1”, “inhibited. […]” for “inhibited. Note that the control (cont) shown in the figures represents turbidity in the absence of the aforementioned samples.”

[3] = tested on: glucosyltransferase (GTF); experiment: Overall GTF inhibitory activity, conclusion from the rGTFB and rGTFC tests; assay type: biochemical, Streptococcus mutans; conditions: summary of Examples 3 and 4, GTFB and GTFC
Procedure: as §3
as §3, with “1% sucrose and” for “1% sucrose-containing”, “Example 2” for “Example 2,”, “concentration: 0.05” for “concentration: 0.1”

[4] = sample final concentration 0.1 mg/mL, FIG. 7
[5] = sample final concentration 0.1 mg/mL, FIG. 8

SMILES	effect on the activity of GTFB (yield of water-insoluble glucan, turbidity) [1, 4]	effect on the activity of GTFC (yield of water-insoluble glucan, turbidity) [2, 5]	GTF inhibitory activity (overall) [3]	effect on the activity of GTFB (yield of water-insoluble glucan, turbidity) ([1]; sample final concentration 0.05 mg/mL, FIG. 9)	effect on the activity of GTFC (yield of water-insoluble glucan, turbidity) ([2]; sample final concentration 0.05 mg/mL, FIG. 10)
O=C(O[C@@H]1Cc2c(O)cc(O)c(Cc3c(O)cc(O)c4c3O[C@H](c3cc(O)c(O)c(O)c3)[C@H](OC(=O)c3cc(O)c(O)c(O)c3)C4)c2O[C@@H]1c1cc(O)c(O)c(O)c1)c1cc(O)c(O)c(O)c1 [OHBF-A, oolong homobisflavan-A]	inhibits	slightly enhances	–	–	–
O=C(O[C@@H]1Cc2c(cc(O)c(Cc3c(O)cc(O)c4c3O[C@H](c3cc(O)c(O)c(O)c3)[C@H](OC(=O)c3cc(O)c(O)c(O)c3)C4)c2O)O[C@@H]1c1cc(O)c(O)c(O)c1)c1cc(O)c(O)c(O)c1 [OHBF-B, oolong homobisflavan-B]	inhibit	inhibit	high	–	–
O=C(O[C@@H]1Cc2c(O)cc(O)c(Cc3c(O)c(Cc4c(O)c(Cc5c(O)cc(O)c6c5O[C@H](c5cc(O)c(O)c(O)c5)[C@H](OC(=O)c5cc(O)c(O)c(O)c5)C6)c(O)c5c4O[C@H](c4cc(O)c(O)c(O)c4)[C@H](OC(=O)c4cc(O)c(O)c(O)c4)C5)c4c(c3O)C[C@@H](OC(=O)c3cc(O)c(O)c(O)c3)[C@@H](c3cc(O)c(O)c(O)c3)O4)c2O[C@@H]1c1cc(O)c(O)c(O)c1)c1cc(O)c(O)c(O)c1 [OHBF-Tet-2, oolong homobisflavan-tetramer-2]	–	–	–	significant inhibitory effect on GTFB was not confirmed	slightly inhibited
O=C(O[C@@H]1Cc2c(O)cc(O)cc2O[C@@H]1c1cc(O)c(O)c(O)c1-c1c([C@H]2Oc3cc(O)cc(O)c3C[C@H]2OC(=O)c2cc(O)c(O)c(O)c2)cc(O)c(O)c1O)c1cc(O)c(O)c(O)c1 [TSN-A, theasinensin A, reference compound]	substantially no effect	extremely enhances	–	–	–
